Results: BindingDB's records for doi:10.7270/Q2WS8RVZ (Burnham Center For Chemical Genomics, 2012)

Target: Endothelial PAS domain-containing protein 1 (Homo sapiens, UniProt Q99814)
Sequence (Q99814 whole entry, the tested form may be a part): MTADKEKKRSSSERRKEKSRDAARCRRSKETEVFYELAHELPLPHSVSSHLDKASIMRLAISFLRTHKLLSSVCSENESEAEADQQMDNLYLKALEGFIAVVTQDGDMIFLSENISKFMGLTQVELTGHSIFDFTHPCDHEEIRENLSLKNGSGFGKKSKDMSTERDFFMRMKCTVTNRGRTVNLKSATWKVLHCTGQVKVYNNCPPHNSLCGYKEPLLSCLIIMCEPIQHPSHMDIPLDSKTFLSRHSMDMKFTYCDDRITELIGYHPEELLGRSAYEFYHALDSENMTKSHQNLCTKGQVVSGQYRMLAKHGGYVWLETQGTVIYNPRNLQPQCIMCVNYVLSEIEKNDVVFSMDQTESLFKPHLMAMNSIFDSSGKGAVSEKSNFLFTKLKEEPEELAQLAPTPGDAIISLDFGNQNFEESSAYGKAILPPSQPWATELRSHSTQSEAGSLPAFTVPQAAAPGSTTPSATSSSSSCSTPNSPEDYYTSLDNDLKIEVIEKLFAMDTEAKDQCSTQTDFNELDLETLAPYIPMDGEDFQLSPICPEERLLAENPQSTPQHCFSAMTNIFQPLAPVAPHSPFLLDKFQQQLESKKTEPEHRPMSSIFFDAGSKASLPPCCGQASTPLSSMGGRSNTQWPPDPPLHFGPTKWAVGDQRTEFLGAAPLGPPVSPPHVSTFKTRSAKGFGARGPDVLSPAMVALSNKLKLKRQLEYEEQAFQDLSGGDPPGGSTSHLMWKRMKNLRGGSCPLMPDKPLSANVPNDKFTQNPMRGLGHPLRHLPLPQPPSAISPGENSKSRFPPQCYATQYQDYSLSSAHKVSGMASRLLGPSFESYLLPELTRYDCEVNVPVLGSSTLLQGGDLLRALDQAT

Compound	IC50 [µM]
Cc1ccc(CN=Nc2cccc(C(=O)O)c2)s1	64.5
CC(C)(C)c1ccc(CN=Nc2ccc(C(=O)O)cc2)cc1	49.6
O=C(O)c1ccc(N=NCc2ccc3ncccc3c2)cc1	64.5
Cc1nn(-c2ccccc2)c(Cl)c1CN=Nc1ccc(Cl)c(C(=O)O)c1 [2-chloro-5-[2-[(5-chloro-3-methyl-1-phenylpyrazol-4-yl)methylidene]hydrazinyl]benzoic acid]	64.5
Cc1nn(-c2ccccc2Cl)c(Cl)c1CN=Nc1cccc(C(=O)O)c1 [3-[2-[[5-chloro-1-(2-chlorophenyl)-3-methylpyrazol-4-yl]methylidene]hydrazinyl]benzoic acid]	23.9
CCOc1cc(CN=Nc2cccc(C(=O)O)c2)ccc1OC(=O)c1ccccc1 [3-[(N''E)-N''-(4-benzoyloxy-3-ethoxy-benzylidene)hydrazino]benzoic acid]	4.22
O=C(O)c1cccc(N=NCc2cccs2)c1 [3-[(N'E)-N'-(2-thenylidene)hydrazino]benzoic acid]	5.74
CSc1ccc(CN=Nc2cccc(C(=O)O)c2)cc1 [3-[(N'E)-N'-[4-(methylthio)benzylidene]hydrazino]benzoic acid]	5.33
CC(C)c1ccc(CN=Nc2ccc(C(=O)O)cc2)cc1 [4-[2-[(4-propan-2-ylphenyl)methylidene]hydrazinyl]benzoic acid]	4.08
COc1cc(CN=O)ccc1OCc1ccc(C(=O)O)cc1 [4-[[4-(hydroximinomethyl)-2-methoxy-phenoxy]methyl]benzoic acid]	4.29
O=C(O)c1cc(N=NCc2ccc3c(c2)OCCO3)ccc1Cl [SMR000242957]	5.03
COc1cccc(C/N=N/c2ncccc2[N+](=O)[O-])c1OC [SMR000461041]	8.21
c1ccc(CN=Nc2ccc3ccccc3n2)nc1 [SMR002048648]	5.57
CCOC(=O)Cc1csc(N=NCc2ccc(C(F)(F)F)cc2)n1 [ethyl 2-[2-[(2E)-2-[[4-(trifluoromethyl)phenyl]methylidene]hydrazinyl]-1,3-thiazol-4-yl]ethanoate]	49.6
O=C(O)c1ccc(N=NCc2ccc(C(F)(F)F)cc2)cc1 [sulfuric acid;4-[(N'E)-N'-[4-(trifluoromethyl)benzylidene]hydrazino]benzoic acid]	9.84
